Source: patent publication US5959145A, “Fatty acid analog enzyme substrates” (priority 1993, dated 1999)

Target: T1, yeast NMT (Saccharomyces cerevisiae, UniProt P14743)
T1 construct: 11,000-fold purified preparation of yeast NMT; endogenous in cells; host or cells: yeast (enzyme purified from yeast, 11,000-fold)
T1 sequence (P14743 1-455): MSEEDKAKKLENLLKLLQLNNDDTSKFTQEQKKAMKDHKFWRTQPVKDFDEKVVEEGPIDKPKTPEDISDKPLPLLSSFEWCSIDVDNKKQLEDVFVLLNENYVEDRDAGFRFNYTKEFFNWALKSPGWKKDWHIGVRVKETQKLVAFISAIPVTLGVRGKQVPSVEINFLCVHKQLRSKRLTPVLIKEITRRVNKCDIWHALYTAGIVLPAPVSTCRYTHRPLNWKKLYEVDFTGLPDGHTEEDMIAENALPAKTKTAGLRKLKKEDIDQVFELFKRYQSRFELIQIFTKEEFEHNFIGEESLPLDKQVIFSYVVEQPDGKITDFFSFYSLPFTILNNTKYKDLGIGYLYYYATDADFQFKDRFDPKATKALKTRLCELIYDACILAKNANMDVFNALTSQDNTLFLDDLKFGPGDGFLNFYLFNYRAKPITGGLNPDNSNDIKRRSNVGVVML
Experiment: kinetic characterisation of fatty acid analogs as yeast NMT substrates
Format: biochemical
Source text: Similar results were obtained using an 11,000-fold purified preparation of yeast NMT [Towler et al., Proc. Natl. Acad. Sci. USA 84, 2708-2712 (1987)].
Other illustrative examples of the oxy- and thio-substituted fatty acid analog substrate compounds of the invention were synthesized in Examples 6 to 14 and tested in Example 15 as substrates for the yeast NMT.
For these Examples, each analog synthesized is characterized by ^1 H and ^13 C NMR as well as mass spectroscopy. The analogs are then characterized kinetically as NMT substrates. Briefly, fatty acid analogs are converted to their CoA esters with Pseudomonas CoA ligase and incubated with the iodinated peptide GNAAS[^125 I]YRR and a source of NMT. […] The radiolabelled peptide is then used at concentrations which will lead to 50% enzyme saturation (i.e., at its Km) for the determination of fatty acid analog kinetic characteristics. Representative analogs with sulfur or oxygen in the backbone of the fatty acid chain serve as good substrates for NMT in vitro and will compete for incorporation of ^3 H labelled myri-state into yeast proteins in vivo. In addition, these analogs differ markedly in hydrophobicity from myri-state as measured both by C18 reverse phase HPLC elution profiles and by 2-octanol/water partition coefficients. The analog CH3 O(CH2)11 COOH, for example, partitions into water 20 fold better than myristate. It is believed that these analogs will be incorporated into mammalian acylproteins in vivo and that their incorporation into these proteins will drastically alter protein processing or targeting. It is further believed that the incorporation of fatty acid analogs of both myristate and palmitate into ester linked and phosphatidyl inositol glycan linked acylproteins will also dramatically alter their properties. Since many viral proteins and oncogenes are acylated, these compounds represent a new class of potential antiviral and antineoplastic agents.

SMILES: CCCCCCCCCCCCCC(=O)O [myristic acid, reference compound]
- Peptide Vm (peptide GNAAS[125I]YRR varied, fatty acid analog at 15 μM, myristate control = 100%): 100%
- Acyl CoA Vm (radiolabelled peptide at its Km, analog varied, myristate control = 100%): 100%
- Km (radiolabelled peptide at its Km, analog varied, read-out: Acyl CoA Km): 0.6 µM
